What was measured:
Format in all cases: functional, cell-based
[1] = test system: HEp-2; assay: Cytotoxicity against Homo sapiens (human) Hep2 cells after 48 hr by SRB assay; details: HEp-2, 48 h
[2] = test system: IMR-32; assay: Cytotoxicity against Homo sapiens (human) IMR32 cells after 48 hr by SRB assay; details: IMR-32, 48 h
[3] = test system: OVCAR; assay: Cytotoxicity against Homo sapiens (human) OVCAR cells after 48 hr by SRB assay
[4] = test system: PC-3; assay: Cytotoxicity against Homo sapiens (human) PC3 cells after 48 hr by SRB assay; details: PC-3, 48 h

`CC(=O)N1N=C(c2ccco2)CC1c1cccc(Cl)c1Cl` (stereo not given) was tested, and the IC50 [1] was 43.2 µM, the IC50 [2] was 62.2 µM and the IC50 [3] was 81.2 µM. The IC50 [4] was 61.2 µM.
For `CC(=O)N1N=C(c2ccco2)CC1c1ccc(C)cc1` (stereo not given), the IC50 [1] was 19.3 µM, the IC50 [2] was 29.1 µM and the IC50 [3] was 11.2 µM. The IC50 [4] was 21.2 µM.
`COc1ccc(C2CC(c3ccccc3)=NN2C(C)=O)cc1OC` (stereo not given) was tested, and the IC50 [1] was 7.85 µM, the IC50 [2] was 4.49 µM and the IC50 [3] was 5.56 µM. For the same molecule, the IC50 [4] was 6.78 µM.
`CC(=O)N1N=C(c2cccc3ccccc23)CC1c1cccc(Br)c1` (stereo not given) was tested, and the IC50 [1] was 9.88 µM, the IC50 [2] was 11.9 µM and the IC50 [3] was 12.3 µM. The IC50 [4] was 12 µM.
Molecule `CC(=O)N1N=C(c2ccc3ccccc3c2)CC1c1cccc([N+](=O)[O-])c1` (stereo not given) has an IC50 [1] of 3.87 µM, an IC50 [2] of 3.28 µM and an IC50 [3] of 3.39 µM. It also gave an IC50 [4] of 2.98 µM.
Work on `CC(=O)N1N=C(c2cccc3ccccc23)CC1c1cccc([N+](=O)[O-])c1` (stereo not given) yielded an IC50 [1] of 4.08 µM, an IC50 [2] of 3.96 µM and an IC50 [3] of 3.65 µM. For the same molecule, the IC50 [4] was 3.13 µM.
With `CC(=O)N1N=C(c2cccc3ccccc23)CC1/C=C/c1ccccc1` (stereo not given) the IC50 [1] was 21.1 µM, the IC50 [2] was 26.7 µM and the IC50 [3] was 24 µM. For the same molecule, the IC50 [4] was 21.1 µM.
For `COc1ccc(C2CC(c3cccc([N+](=O)[O-])c3)=NN2C(C)=O)cc1` (stereo not given), the IC50 [1] was 8.21 µM, the IC50 [2] was 6.65 µM and the IC50 [3] was 8.76 µM. The IC50 [4] was 7.83 µM.
`CC(=O)N1N=C(c2ccco2)CC1c1ccc(Br)cc1` (stereo not given) gave an IC50 [1] of 51.2 µM, an IC50 [2] of 47.8 µM and an IC50 [3] of 18.9 µM. It also gave an IC50 [4] of 42.1 µM.
Work on `CC(=O)N1N=C(c2ccco2)CC1c1ccc(N(C)C)cc1` (stereo not given) yielded an IC50 [1] of 16 µM, an IC50 [2] of 16.1 µM and an IC50 [3] of 14.6 µM. For the same molecule, the IC50 [4] was 16.7 µM.
`CC(=O)N1N=C(c2cccc3ccccc23)CC1c1ccccc1` (stereo not given) was tested, and the IC50 [1] was 11.2 µM, the IC50 [2] was 7.76 µM and the IC50 [3] was 7.82 µM. The IC50 [4] was 8.46 µM.
`CC(=O)N1CC(c2ccc3c(c2)OCO3)C(c2ccc3ccccc3c2)=N1` (stereo not given) gave an IC50 [1] of 1.01 µM, an IC50 [2] of 1.56 µM and an IC50 [3] of 3.45 µM. It also gave an IC50 [4] of 1.97 µM.
In the case of `CC(=O)N1N=C(c2ccc(Br)cc2)CC1c1ccccc1` (stereo not given), the IC50 [1] is reported as 27.8 µM, the IC50 [2] is reported as 22.4 µM and the IC50 [3] is reported as 21.2 µM. It also gave an IC50 [4] of 29.9 µM.
With `CC(=O)N1N=C(c2ccco2)CC1c1ccccc1` (stereo not given) the IC50 [1] was 32.1 µM, the IC50 [2] was 29.1 µM and the IC50 [3] was 31.3 µM. For the same molecule, the IC50 [4] was 21.3 µM.
For `COc1ccc(C2CC(c3cccc4ccccc34)=NN2C(C)=O)cc1` (stereo not given), the IC50 [1] was 3.73 µM, the IC50 [2] was 4.99 µM and the IC50 [3] was 6.71 µM. The IC50 [4] was 4.93 µM.
`CC(=O)N1N=C(c2cccc3ccccc23)CC1c1cccc(Cl)c1Cl` (stereo not given) showed an IC50 [1] of 16.8 µM, an IC50 [2] of 22.1 µM and an IC50 [3] of 19.1 µM. The IC50 [4] was 20.1 µM.
Work on `CC(=O)N1N=C(c2ccc3ccccc3c2)CC1c1cccc(Br)c1` (stereo not given) yielded an IC50 [1] of 8.78 µM, an IC50 [2] of 9.87 µM and an IC50 [3] of 10.8 µM. It also gave an IC50 [4] of 10.9 µM.
`COc1ccc(C2CC(c3ccc4ccccc4c3)=NN2C(C)=O)cc1O` (stereo not given) showed an IC50 [1] of 1.02 µM, an IC50 [2] of 1.49 µM and an IC50 [3] of 2.16 µM. For the same molecule, the IC50 [4] was 2.04 µM.
`COc1cc(C2CC(c3ccco3)=NN2C(C)=O)cc(OC)c1OC` (stereo not given) was tested, and the IC50 [1] was 21.3 µM, the IC50 [2] was 9.87 µM and the IC50 [3] was 10.9 µM. For the same molecule, the IC50 [4] was 9.65 µM.
For `COc1ccc(C2CC(c3ccc4ccccc4c3)=NN2C(C)=O)cc1OC` (stereo not given), the IC50 [1] was 1.01 µM, the IC50 [2] was 1.59 µM and the IC50 [3] was 2.45 µM. It also gave an IC50 [4] of 1.98 µM.
`COc1cc(C2CC(c3cccc4ccccc34)=NN2C(C)=O)cc(OC)c1OC` (stereo not given) was tested, and the IC50 [1] was 1.01 µM, the IC50 [2] was 1.54 µM and the IC50 [3] was 1.77 µM. The IC50 [4] was 1.09 µM.
`COc1ccc(C2CC(c3ccc(Br)cc3)=NN2C(C)=O)cc1` (stereo not given) gave an IC50 [1] of 17.9 µM, an IC50 [2] of 15.7 µM and an IC50 [3] of 16.9 µM. The IC50 [4] was 17.8 µM.
Molecule `CC(=O)N1N=C(c2ccccc2)CC1c1ccc(N(C)C)cc1` (stereo not given) has an IC50 [1] of 14.6 µM, an IC50 [2] of 9.66 µM and an IC50 [3] of 12 µM. It also gave an IC50 [4] of 7.88 µM.
For `COc1cc(C2CC(c3ccccc3)=NN2C(C)=O)cc(OC)c1OC` (stereo not given), the IC50 [1] was 3.56 µM, the IC50 [2] was 3.38 µM and the IC50 [3] was 4.64 µM. It also gave an IC50 [4] of 3.39 µM.
For `CC(=O)N1N=C(c2ccco2)CC1c1ccc2c(c1)OCO2` (stereo not given), the IC50 [1] was 20 µM, the IC50 [2] was 12.3 µM and the IC50 [3] was 12.3 µM. It also gave an IC50 [4] of 16.7 µM.
Molecule `CC(=O)N1N=C(c2ccco2)CC1c1ccccc1[N+](=O)[O-]` (stereo not given) has an IC50 [1] of 47.9 µM, an IC50 [2] of 27.9 µM and an IC50 [3] of 28.3 µM. The IC50 [4] was 19 µM.
Work on `COc1ccc(C2CC(c3ccc4ccccc4c3)=NN2C(C)=O)cc1` (stereo not given) yielded an IC50 [1] of 3.23 µM, an IC50 [2] of 4.12 µM and an IC50 [3] of 5.79 µM. The IC50 [4] was 4.53 µM.
`COc1ccc(C2CC(c3ccccc3)=NN2C(C)=O)cc1` (stereo not given) showed an IC50 [1] of 10.7 µM, an IC50 [2] of 9.73 µM and an IC50 [3] of 13.8 µM. It also gave an IC50 [4] of 7.67 µM.
`COc1cc(C2CC(c3ccco3)=NN2C(C)=O)ccc1O` (stereo not given) showed an IC50 [1] of 10.1 µM, an IC50 [2] of 23.3 µM and an IC50 [3] of 11.3 µM. It also gave an IC50 [4] of 12.9 µM.
With `COc1ccc(C2CC(c3ccc4ccccc4c3)=NN2C(C)=O)c(OC)c1OC` (stereo not given) the IC50 [1] was 0.59 µM, the IC50 [2] was 0.78 µM and the IC50 [3] was 0.58 µM. For the same molecule, the IC50 [4] was 0.61 µM.
Work on `CC(=O)N1N=C(c2ccc3ccccc3c2)CC1c1cccc(Cl)c1Cl` (stereo not given) yielded an IC50 [1] of 12.5 µM, an IC50 [2] of 16.9 µM and an IC50 [3] of 15.1 µM. For the same molecule, the IC50 [4] was 17.9 µM.
`CC(=O)N1N=C(c2cccc([N+](=O)[O-])c2)CC1c1ccc2c(c1)OCO2` (stereo not given) showed an IC50 [1] of 7.65 µM, an IC50 [2] of 7.89 µM and an IC50 [3] of 9.87 µM. For the same molecule, the IC50 [4] was 8.21 µM.
With `COc1ccc(C2CC(c3ccc(Br)cc3)=NN2C(C)=O)cc1OC` (stereo not given) the IC50 [1] was 8.87 µM, the IC50 [2] was 5.54 µM and the IC50 [3] was 5.59 µM. For the same molecule, the IC50 [4] was 7.76 µM.
Molecule `CC(=O)N1N=C(c2ccc3ccccc3c2)CC1c1ccccc1` (stereo not given) has an IC50 [1] of 8.4 µM, an IC50 [2] of 10 µM and an IC50 [3] of 21.5 µM. The IC50 [4] was 7.4 µM.
In the case of `CC(=O)N1N=C(c2ccc(Br)cc2)CC1c1cccc(Cl)c1Cl` (stereo not given), the IC50 [1] is reported as 50 µM, the IC50 [2] is reported as 45.7 µM and the IC50 [3] is reported as 39.8 µM. For the same molecule, the IC50 [4] was 38.8 µM.
With `COc1ccc(OC)c(C2CC(c3ccc4ccccc4c3)=NN2C(C)=O)c1` (stereo not given) the IC50 [1] was 1.09 µM, the IC50 [2] was 1.32 µM and the IC50 [3] was 2.33 µM. The IC50 [4] was 1.66 µM.
Work on `CC(=O)N1N=C(c2cccc([N+](=O)[O-])c2)CC1c1ccccc1` (stereo not given) yielded an IC50 [1] of 8.93 µM, an IC50 [2] of 7.89 µM and an IC50 [3] of 9.92 µM. For the same molecule, the IC50 [4] was 8.71 µM.
`CC(=O)N1N=C(c2ccco2)CC1c1cccc(O)c1` (stereo not given) showed an IC50 [1] of 10 µM, an IC50 [2] of 11.8 µM and an IC50 [3] of 13.2 µM. It also gave an IC50 [4] of 16.5 µM.
For `COc1cc(C2CC(c3ccccc3)=NN2C(C)=O)ccc1O` (stereo not given), the IC50 [1] was 4.99 µM, the IC50 [2] was 5.78 µM and the IC50 [3] was 6.63 µM. It also gave an IC50 [4] of 7.56 µM.
Work on `CC(=O)N1N=C(c2cccc3ccccc23)CC1c1ccc2ccccc2c1` (stereo not given) yielded an IC50 [1] of 0.19 µM, an IC50 [2] of 0.27 µM and an IC50 [3] of 0.25 µM. The IC50 [4] was 0.21 µM.
With `COc1ccc(C2CC(c3cccc([N+](=O)[O-])c3)=NN2C(C)=O)cc1OC` (stereo not given) the IC50 [1] was 7.81 µM, the IC50 [2] was 6.22 µM and the IC50 [3] was 8.11 µM. The IC50 [4] was 6.78 µM.
In the case of `CC(=O)N1N=C(c2cccc([N+](=O)[O-])c2)CC1c1cccc(Cl)c1Cl` (stereo not given), the IC50 [1] is reported as 27.6 µM, the IC50 [2] is reported as 25.3 µM and the IC50 [3] is reported as 19.7 µM. It also gave an IC50 [4] of 18.2 µM.
`CC(=O)N1N=C(c2ccc3ccccc3c2)CC1c1ccco1` (stereo not given) gave an IC50 [1] of 19 µM, an IC50 [2] of 11 µM and an IC50 [3] of 18 µM. It also gave an IC50 [4] of 23 µM.
Molecule `CC(=O)N1N=C(c2ccco2)CC1c1cccc([N+](=O)[O-])c1` (stereo not given) has an IC50 [1] of 30 µM, an IC50 [2] of 28.9 µM and an IC50 [3] of 23.4 µM. The IC50 [4] was 20 µM.
`COc1ccc(C2CC(c3cccc4ccccc34)=NN2C(C)=O)c(OC)c1OC` (stereo not given) showed an IC50 [1] of 1.29 µM, an IC50 [2] of 1.79 µM and an IC50 [3] of 1.98 µM. For the same molecule, the IC50 [4] was 1.22 µM.

— ChEMBL document CHEMBL3045315, “Effect of ring A and ring B substitution on the cytotoxic potential of pyrazole tethered chalcones” (Med Chem Res, 2012)
